Test results from paper PMC12567082, “Silver(I) Complexes Bearing S-Alkyl Thiosalicylic Acid Derivatives: DNA/BSA Binding and Antitumor Activity In Vitro and In Vivo” (Pharmaceutics, 2025).

Tests used:
CT-DNA [1] = test: UV-Vis absorption titration with CT-DNA; assay type: binding, calf; conditions: ΔG = −RT lnKb
Method: All DNA-binding studies were conducted in 0.01 M phosphate-buffered saline (PBS, pH 7.40) at 25 °C. […] To eliminate absorbance from CT-DNA, identical amounts of DNA were added to both the test and reference solutions prior to spectral recording.
Intrinsic binding constants (Kb) were calculated using the equation to determine the DNA-binding affinities of the complexes (1):[DNA]/(εa − εf) = [DNA]/(εb − εf) + 1 [Kb(εb − εf)](1)
[DNA] represents the concentration of DNA; apparent extinction coefficient, εa, was calculated as the ratio of the observed absorbance to the concentration of the complex (Aobs/[complex]); and εb and εf correspond to the extinction coefficients of the complex in the fully bound and free forms, respectively. Kb was determined from the ratio of the slope to the intercept obtained from the corresponding linear plots.

CT-DNA [2] = test: EB–CT-DNA fluorescence quenching; assay type: binding, calf; conditions: EB–CT-DNA 8.52 × 10^−5 M, PBS pH 7.4
Method: All samples were prepared in phosphate-buffered saline (PBS, pH 7.4). Stern–Volmer Equation (2) was used to interpret the fluorescence quenching data.

CT-DNA [3] = test: Viscosity measurements of DNA solution; design: species or system calf; conditions: up to r = 1.0, 8 µM DNA
Method: Viscosity measurements were performed to evaluate the interaction of C2 and C4 with DNA. The flow time was measured with a digital stopwatch. For each concentration, six replicate measurements were taken, and the average flow time was used for analysis. The data were presented as (η/η0)^1/3 against r, where η is the viscosity of DNA in the presence of complex, and η0 is the viscosity of DNA alone in the buffered solution. The viscosity value was calculated from the observed flow time of DNA-containing solution (t) corrected for the flow time of buffer alone (t0), η = (t − t0)/t0.

BSA = target: T1, BSA (Bos taurus, UniProt P02769); test: BSA tryptophan fluorescence quenching; assay type: binding, bovine
T1 construct: purchased Sigma-Aldrich
Method: The protein binding study was carried out using tryptophan fluorescence quenching experiments with BSA. […] Fluorescence emission spectra were recorded between 300 and 500 nm, with excitation at 295 nm.
The quenching constant Ksv was determined based on the Stern–Volmer relationship, as described by Equation (3):I0/I = 1 + kqτ0[Q] = 1 + Ksv[Q](3)
In this equation, I0 and I refer to the fluorescence intensities of BSA measured without and with the quencher (complex), τ0 represents the average fluorescence lifetime of free BSA (∼10^−8 s), and [Q] indicates the quencher concentration.
Parameters such as association binding constant (K) and the number of binding sites per albumin (n) were obtained from Scatchard Equation (4):(ΔI/I0)/[Q] = nK − KΔI/I0(4)
To minimize inner filter, both intensities of fluorescence originating from excitation and emission light absorption and re-absorption were corrected by employing Equation (5); Icor and Iobs are the corrected and observed fluorescence intensities, respectively, and Aex and Aem represent the absorbance of the metal complex at the excitation and emission wavelengths, respectively.Icor = Iobs · […]^(Aex + Aem)/2(5)

[4] = system: Mouse breast cancer (4T1); test: MTT assay 4T1; assay type: cell-based; conditions: 4T1, 48 h
Method: (§1) Mouse breast cancer (4T1), human breast cancer (MDA-MB-468), mouse colon cancer (CT26), human colon cancer (HCT-116), mouse lung cancer (LLC1), human lung cancer (A549), mouse mesenchymal stem cells (mMSC), and human fibroblast cell lines (MRC-5) were used in this study and were consistently cultured in complete Dulbecco’s Modified Eagle Medium (DMEM) (Sigma-Aldrich, St. Louis, MO, USA) in incubator (5% CO2) under standard conditions. Complete DMEM was Dulbecco’s Modified Eagle Medium supplemented with 10% fetal bovine serum (FBS), 1 mmol/L penicillin–streptomycin, 1 mmol/L mixed nonessential amino acids, and 2 mmol/L L-glutamine (Sigma-Aldrich, St. Louis, MO, USA). All cancer cell lines and MRC-5 cell line were obtained from American Type Culture Collection (ATCC, Manassas, VA, USA), but mMSC was manufactured by Gibco (Middlesex County, MA, USA).
(§2) In 96-well microplates, we seeded cancer and non-cancer cells, more exactly 5 × 10^3 cells per well in 100 μL of complete DMEM (Sigma-Aldrich, St. Louis, MO, USA). […] Tested concentration range for all metal-based substances was 3.9–500 μM. After incubation with MTT solution (5 mg/mL; pH 7.2) for 4 h, optical density was determined using Zenyth 3100 microplate multimode detector (Salzburg, Austria). All experiments were performed three times, each in triplicate, and the IC50 values as well as selectivity indexes (IC50 for mMSC or MRC-5/IC50 for mouse or human cancer cells) were calculated.

[5] = system: human breast cancer (MDA-MB-468); test: MTT assay MDA-MB-468; assay type: cell-based
Method: as §1, §2

mouse lung cancer (LLC1) = test: MTT assay LLC1; assay type: cell-based
Method: as §1, §2

human lung cancer (A549) = test: MTT assay A549; assay type: cell-based
Method: as §1, §2

[6] = system: mouse mesenchymal stem cells (mMSC); test: MTT assay mMSC; assay type: cell-based
Method: as §1, §2

[7] = system: human fibroblast cell lines (MRC-5); test: MTT assay MRC-5; assay type: cell-based
Method: as §1, §2

CT26 cells = test: Annexin V/PI apoptosis in CT26; assay type: cell-based, mouse; conditions: 0.5 μM for 24 h
Method: (§3) The following supporting information can be downloaded at https://www.mdpi.com/article/10.3390/pharmaceutics17101340/s1. NMR and FTIR spectra of free ligands and complexes. Figure S1. […] Inset: Plot of [DNA]/(εA − εf) vs. [DNA]. Figure S2. Relative viscosity (η/η0) ^1/3 of CT-DNA (8 µM) in PBS buffer solution with the addition of increasing amounts (r) of C2 and C4 complexes. Figure S3. […] [EB] = 8.52 × 10^−5 M; [DNA] = 8.52 × 10^−5 M; [complex] = (0–6.82) × 10^−5; λex = 527 nm. Arrows show the intensity changes upon increasing the concentration of the complex. Inset graph: Plot of I0/I vs. [Q]. Figure S4. […] [BSA] = 2 μM; [complex] = 0–8 μM; λex = 295 nm. Arrows show the intensity changes upon increasing the concentration of the complex. Inset graph: Plot of I0/I vs. [Q]. Figure S5. […] Figure S6. Dose-dependent cytotoxicity of silver(I) complexes with S-alkyl derivatives of thiosalicylic acid. […] All data are presented as mean values ± SD from three independent experiments performed in triplicate. Figure S7. Dose-dependent cytotoxicity of S-alkyl derivatives of thiosalicylic acid. […] All data are presented as mean values ± SD from three independent experiments performed in triplicate. Figure S8. […] Apoptotic rates of C2-treated (0.5 μM for 24 h) as well as untreated CT26 and HCT116 cells were determined by flow cytometry using Annexin V (FITC) and PI double staining. […]

HCT116 cells = test: Annexin V/PI apoptosis in HCT116; assay type: cell-based, human; conditions: 0.5 μM for 24 h
Method: as §3

T1 sequence (P02769 25-607): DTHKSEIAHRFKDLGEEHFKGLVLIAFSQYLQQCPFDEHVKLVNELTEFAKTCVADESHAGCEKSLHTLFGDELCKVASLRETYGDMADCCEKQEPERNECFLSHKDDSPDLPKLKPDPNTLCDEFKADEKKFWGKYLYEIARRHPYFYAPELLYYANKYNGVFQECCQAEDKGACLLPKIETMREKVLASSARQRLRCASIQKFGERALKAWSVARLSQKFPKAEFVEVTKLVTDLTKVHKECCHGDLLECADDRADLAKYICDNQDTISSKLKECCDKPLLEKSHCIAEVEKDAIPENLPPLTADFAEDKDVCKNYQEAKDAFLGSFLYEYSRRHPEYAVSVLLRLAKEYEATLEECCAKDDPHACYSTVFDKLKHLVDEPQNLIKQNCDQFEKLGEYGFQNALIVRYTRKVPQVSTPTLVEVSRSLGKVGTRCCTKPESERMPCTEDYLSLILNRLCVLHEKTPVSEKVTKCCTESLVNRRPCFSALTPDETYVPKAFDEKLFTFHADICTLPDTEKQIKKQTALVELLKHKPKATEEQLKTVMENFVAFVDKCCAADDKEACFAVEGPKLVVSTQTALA

SMILES: CCSc1ccccc1C(=O)[O][Ag].CCSc1ccccc1C(=O)[O][Ag] [C2, [Ag2(S-ethyl-thiosal)2]]
- ΔG (Gibbs free energy) (CT-DNA [1]): -6.76 kcal/mol
- Ksv EB (Stern–Volmer constant) (CT-DNA [2]): (1.1 ± 0.1) × 10^4 M^−1
- viscosity of CT-DNA (CT-DNA [3]): modest rise in the viscosity
- kq (quenching rate constant) (BSA; BSA 2 µM): (1.4 ± 0.1) × 10^13 M^−1 s^−1
- Ksv (Stern–Volmer constant) (BSA; BSA 2 µM, λex 295 nm): (1.4 ± 0.1) × 10^5 M^−1
- K (binding constant) (BSA; Scatchard equation): (1.3 ± 0.1) × 10^5 M^−1
- n (number of binding sites) (BSA; Scatchard equation): 1.1
- IC50 [4]: 4.84 ± 0.92 µM
- Selectivity Index (IC50 mMSC or MRC-5/ IC50 Cancer Cell) [4]: 0.93
- IC50 ([5]; MDA-MB-468, 24 h): 8.67 ± 1.13 µM
- Selectivity Index (IC50 mMSC or MRC-5/ IC50 Cancer Cell) ([5]; MDA-MB-468, 24 h): 4.39
- IC50 ([5]; MDA-MB-468, 48 h): 5.43 ± 0.34 µM
- Selectivity Index (IC50 mMSC or MRC-5/ IC50 Cancer Cell) ([5]; MDA-MB-468, 48 h): 7.95
- IC50 (mouse lung cancer (LLC1); LLC1, 24 h): 18.2 ± 0.93 µM
- Selectivity Index (IC50 mMSC or MRC-5/ IC50 Cancer Cell) (mouse lung cancer (LLC1); LLC1, 24 h): 0.24
- IC50 (mouse lung cancer (LLC1); LLC1, 48 h): 20.2 ± 0.79 µM
- Selectivity Index (IC50 mMSC or MRC-5/ IC50 Cancer Cell) (mouse lung cancer (LLC1); LLC1, 48 h): 0.22
- IC50 (human lung cancer (A549); A549, 24 h): 37.8 ± 1.01 µM
- Selectivity Index (IC50 mMSC or MRC-5/ IC50 Cancer Cell) (human lung cancer (A549); A549, 24 h): 1.01
- IC50 (human lung cancer (A549); A549, 48 h): 50.2 ± 1.07 µM
- Selectivity Index (IC50 mMSC or MRC-5/ IC50 Cancer Cell) (human lung cancer (A549); A549, 48 h): 0.86
- IC50 ([6]; 24 h): 4.29 ± 0.92 µM
- IC50 ([6]; 48 h): 4.52 ± 0.48 µM
- IC50 ([7]; MRC-5, 24 h): 38 ± 1.91 µM
- IC50 ([7]; MRC-5, 48 h): 43.2 ± 1.23 µM
- apoptosis of CT26 cells (CT26 cells): underwent apoptosis
- apoptosis of HCT116 cells (HCT116 cells): underwent apoptosis
